# Assays:
# [1] = test system: antibodies in sera from SARS patients (sera 1a, 1b, 2, 6, 37, 62, London, SARS-yellow, SARS-green); type: binding, human; set-up: Binding of serum 6 to linear peptides of protein X1 of SARS-CoV Urbani / Binding of serum 37 to linear peptides of protein X1 of SARS-CoV Urbani / Binding of serum 6 to looped/cyclic peptide (PEPSCAN-ELISA) / Binding of serum 37 to looped/cyclic peptide (PEPSCAN-ELISA) / Binding of serum 37 to looped/cyclic peptides of protein X1 of SARS-CoV Urbani / Binding of serum 6 to linear peptides of protein X2 / Binding of serum 37 to linear peptides of protein X2 / Binding of serum 37 to looped/cyclic peptides of protein X2 of SARS-CoV Urbani / Binding of serum 6 to linear peptides of protein M of SARS-CoV Urbani / Binding of serum 37 to linear peptides of protein M of SARS-CoV Urbani / Binding of serum 6 to looped/cyclic peptides of protein M of SARS-CoV Urbani / Binding of serum 37 to looped/cyclic peptides of protein M of SARS-CoV Urbani / Binding of serum 6 to linear peptides of protein X3 of SARS-CoV Urbani / Binding of serum 37 to linear peptides of protein X3 of SARS-CoV Urbani / Binding of serum 37 to looped/cyclic peptides of protein X3 of SARS-CoV Urbani / Binding of serum 6 to linear peptides of protein X4 of SARS-CoV Urbani / Binding of serum 37 to linear peptides of protein X4 of SARS-CoV Urbani / Binding of serum 37 to looped/cyclic peptides of protein X4 of SARS-CoV Urbani / Binding of serum 6 to linear peptides of protein X5 of SARS-CoV Urbani / Binding of serum 37 to linear peptides of protein X5 of SARS-CoV Urbani / Binding of serum 37 to looped/cyclic peptides of protein X5 of SARS-CoV Urbani / Binding of serum 6 to linear peptides of protein N of SARS-CoV Urbani / Binding of serum 37 to linear peptides of protein N of SARS-CoV Urbani / Binding of serum 6 to linear peptide (PEPSCAN-ELISA) / Binding of serum 1a to looped/cyclic peptides of protein N of SARS-CoV Urbani / Binding of serum 1b to looped/cyclic peptides of protein N of SARS-CoV Urbani / Binding of serum 2 to looped/cyclic peptides of protein N of SARS-CoV Urbani / Binding of serum 6 to looped/cyclic peptides of protein N of SARS-CoV Urbani / Binding of serum 37 to looped/cyclic peptides of protein N of SARS-CoV Urbani / Binding of serum 62 to looped/cyclic peptides of protein N of SARS-CoV Urbani / Binding of serum London to looped/cyclic peptides of protein N of SARS-CoV Urbani / Binding of serum SARS-green to looped/cyclic peptides of protein N of SARS-CoV Urbani: unit not given here
# [2] = test system: recombinant human anti-SARS-CoV antibody 03-018; type: binding; set-up: Binding of antibody 03-018 to linear peptides of the N protein of SARS-CoV Urbani / Binding of antibody 03-018 to looped/cyclic peptides of the N protein of SARS-CoV Urbani: unit not given here
# [3] = test system: rabbit serum obtained by immunizing a rabbit with the SARS-CoV strain Frankfurt 1; type: binding; set-up: Binding of a rabbit serum to linear peptides / Binding of a rabbit serum to looped peptides / Rabbit serum linear peptides / Rabbit serum looped peptides / Binding of a rabbit serum to linear peptides of protein N of SARS-CoV Urbani (Rabbit serum linear peptides) / Binding of a rabbit serum to looped/cyclic peptides of protein N of SARS-CoV Urbani (Rabbit serum looped peptides): unit not given here
# [4] = test system: control sera (pooled serum of ten healthy LUMC hospital workers; commercial negative donor pooled serum from the Dutch bloodbank); type: binding, human; set-up: Binding of Control serum LUMC to linear peptides / Binding of Control serum Blood-bank to linear peptides / Binding of Control serum LUMC to looped peptides / Binding of Control Serum Blood-Bank to Looped peptides / Binding of Control serum LUMC to linear peptides of the protein M of SARS-CoV Urbani / Binding of Control serum Blood-bank to linear peptides of the protein M of SARS-CoV Urbani / Binding of Control serum LUMC to looped peptides of the protein M of SARS-CoV Urbani / Binding of Control Serum Blood-Bank to Looped peptides of the protein M of SARS-CoV Urbani: unit not given here
sequence,measurement,setting,value
MSRIGMEVTPSGTWL,Binding of serum 1a to linear peptides of protein N of SARS-CoV Urbani,[1],0.3
same,Binding of serum 1a to looped/cyclic peptides of protein N of SARS-CoV Urbani,[1],0.4
same,Binding of serum 1b to linear peptides of protein N of SARS-CoV Urbani,[1],0.1
same,Binding of serum 1b to looped/cyclic peptides of protein N of SARS-CoV Urbani,[1],0.3
same,Binding of serum 2 to linear peptides of protein N of SARS-CoV Urbani,[1],0.2
same,Binding of serum 2 to looped/cyclic peptides of protein N of SARS-CoV Urbani,[1],0.5
same,Binding of serum 6 to linear peptides of protein N of SARS-CoV Urbani,[1],0.2
same,Binding of serum 6 to looped/cyclic peptides of protein N of SARS-CoV Urbani,[1],0.3
same,Binding of serum 37 to linear peptides of protein N of SARS-CoV Urbani,[1],0.6
same,Binding of serum 37 to looped/cyclic peptides of protein N of SARS-CoV Urbani,[1],0.6
same,Binding of serum 62 to linear peptides of protein N of SARS-CoV Urbani,[1],0.7
same,Binding of serum 62 to looped/cyclic peptides of protein N of SARS-CoV Urbani,[1],0.7
same,Binding of serum London to linear peptides of protein N of SARS-CoV Urbani,[1],0.5
same,Binding of serum London to looped/cyclic peptides of protein N of SARS-CoV Urbani,[1],0.5
same,Binding of serum SARS-green to linear peptides of protein N of SARS-CoV Urbani,[1],0.3
same,Binding of serum SARS-green to looped/cyclic peptides of protein N of SARS-CoV Urbani,[1],0.7
same,Binding of serum SARS-yellow to linear peptides of protein N of SARS-CoV Urbani,[1],0.6
same,Binding of serum SARS-yellow to looped/cyclic peptides of protein N of SARS-CoV Urbani,[1],0.5
same,Binding of antibody 03-018 to linear peptides of the N protein of SARS-CoV Urbani,[2],0.1
same,Binding of antibody 03-018 to looped/cyclic peptides of the N protein of SARS-CoV Urbani,[2],0.2
same,Binding of a rabbit serum to linear peptides of protein N of SARS-CoV Urbani (Rabbit serum linear peptides),[3],0.2
same,Binding of a rabbit serum to looped/cyclic peptides of protein N of SARS-CoV Urbani (Rabbit serum looped peptides),[3],0.5
same,Control Serum Blood-Bank Looped peptides,[4],0.7
same,Control serum Blood-bank linear peptides,[4],0.8
same,Control serum LUMC linear peptides,[4],0.7
same,Control serum LUMC looped peptides,[4],0.7
NFGDQDLIRQGTDYK,Binding of serum 1a to linear peptide (PEPSCAN-ELISA),[1],0.3
same,Binding of serum 1a to looped/cyclic peptides of protein N of SARS-CoV Urbani,[1],0.2
same,Binding of serum 1b to linear peptide (PEPSCAN-ELISA),[1],0.2
same,Binding of serum 1b to looped/cyclic peptides of protein N of SARS-CoV Urbani,[1],0.1
same,Binding of serum 2 to linear peptide (PEPSCAN-ELISA),[1],0.2
same,Binding of serum 2 to looped/cyclic peptides of protein N of SARS-CoV Urbani,[1],0.2
same,Binding of serum 6 to linear peptide (PEPSCAN-ELISA),[1],0.2
same,Binding of serum 6 to looped/cyclic peptides of protein N of SARS-CoV Urbani,[1],0.1
same,Binding of serum 37 to linear peptide (PEPSCAN-ELISA),[1],0.7
same,Binding of serum 37 to looped/cyclic peptides of protein N of SARS-CoV Urbani,[1],0.4
same,Binding of serum 62 to linear peptide (PEPSCAN-ELISA),[1],0.7
same,Binding of serum 62 to looped/cyclic peptides of protein N of SARS-CoV Urbani,[1],0.3
same,Binding of serum London to linear peptide (PEPSCAN-ELISA),[1],0.6
same,Binding of serum London to looped/cyclic peptides of protein N of SARS-CoV Urbani,[1],0.3
same,Binding of serum SARS-green to linear peptide (PEPSCAN-ELISA),[1],0.8
same,Binding of serum SARS-green to looped/cyclic peptides of protein N of SARS-CoV Urbani,[1],0.2
same,Binding of serum SARS-yellow to linear peptide (PEPSCAN-ELISA),[1],0.6
same,Binding of serum SARS-yellow to looped/cyclic peptides of protein N of SARS-CoV Urbani,[1],0.1
same,Binding of antibody 03-018 to linear peptides of the N protein of SARS-CoV Urbani,[2],0.1
same,Binding of antibody 03-018 to looped/cyclic peptides of the N protein of SARS-CoV Urbani,[2],0.2
same,Binding of a rabbit serum to linear peptides of protein N of SARS-CoV Urbani (Rabbit serum linear peptides),[3],0.1
same,Binding of a rabbit serum to looped/cyclic peptides of protein N of SARS-CoV Urbani (Rabbit serum looped peptides),[3],0.1
same,Binding of Control Serum Blood-Bank to Looped peptides,[4],0.5
same,Binding of Control serum Blood-bank to linear peptides,[4],0.8
same,Binding of Control serum LUMC to linear peptides,[4],0.7
same,Binding of Control serum LUMC to looped peptides,[4],0.4
NGARPKQRRPQGLPN,Binding of serum 1a to linear peptides of protein N of SARS-CoV Urbani,[1],0.2
same,Binding of serum 1a to looped/cyclic peptides of protein N of SARS-CoV Urbani,[1],0.3
same,Binding of serum 1b to linear peptides of protein N of SARS-CoV Urbani,[1],0.1
same,Binding of serum 1b to looped/cyclic peptides of protein N of SARS-CoV Urbani,[1],0.2
same,Binding of serum 2 to linear peptides of protein N of SARS-CoV Urbani,[1],0.2
same,Binding of serum 2 to looped/cyclic peptides of protein N of SARS-CoV Urbani,[1],0.3
same,Binding of serum 6 to linear peptides of protein N of SARS-CoV Urbani,[1],0.1
same,Binding of serum 6 to looped/cyclic peptides of protein N of SARS-CoV Urbani,[1],0.4
same,Binding of serum 37 to linear peptides of protein N of SARS-CoV Urbani,[1],0.7
same,Binding of serum 37 to looped/cyclic peptides of protein N of SARS-CoV Urbani,[1],0.6
same,Binding of serum 62 to linear peptides of protein N of SARS-CoV Urbani,[1],0.5
same,Binding of serum 62 to looped/cyclic peptides of protein N of SARS-CoV Urbani,[1],0.5
same,Binding of serum London to linear peptides of protein N of SARS-CoV Urbani,[1],0.4
same,Binding of serum London to looped/cyclic peptides of protein N of SARS-CoV Urbani,[1],0.5
same,Binding of serum SARS-green to linear peptides of protein N of SARS-CoV Urbani,[1],0.3
same,Binding of serum SARS-green to looped/cyclic peptides of protein N of SARS-CoV Urbani,[1],0.4
same,Binding of serum SARS-yellow to linear peptides of protein N of SARS-CoV Urbani,[1],0.5
same,Binding of serum SARS-yellow to looped/cyclic peptides of protein N of SARS-CoV Urbani,[1],0.4
same,Binding of antibody 03-018 to linear peptides of the N protein of SARS-CoV Urbani,[2],0.1
same,Binding of antibody 03-018 to looped/cyclic peptides of the N protein of SARS-CoV Urbani,[2],0.3
same,Binding of a rabbit serum to linear peptides of protein N of SARS-CoV Urbani (Rabbit serum linear peptides),[3],0.1
same,Binding of a rabbit serum to looped/cyclic peptides of protein N of SARS-CoV Urbani (Rabbit serum looped peptides),[3],0.3
same,Binding of Control Serum Blood-Bank to Looped peptides,[4],0.6
same,Binding of Control serum Blood-bank to linear peptides,[4],0.7
same,Binding of Control serum LUMC to linear peptides,[4],0.6
same,Binding of Control serum LUMC to looped peptides,[4],0.6
NGGRNGARPKQRRPQ,Binding of serum 1a to linear peptides of protein N of SARS-CoV Urbani,[1],0.2
same,Binding of serum 1a to looped/cyclic peptides of protein N of SARS-CoV Urbani,[1],0.3
same,Binding of serum 1b to linear peptides of protein N of SARS-CoV Urbani,[1],0.1
same,Binding of serum 1b to looped/cyclic peptides of protein N of SARS-CoV Urbani,[1],0.2
same,Binding of serum 2 to linear peptides of protein N of SARS-CoV Urbani,[1],0.2
same,Binding of serum 2 to looped/cyclic peptides of protein N of SARS-CoV Urbani,[1],0.3
same,Binding of serum 6 to linear peptides of protein N of SARS-CoV Urbani,[1],0.2
same,Binding of serum 6 to looped/cyclic peptides of protein N of SARS-CoV Urbani,[1],0.3
same,Binding of serum 37 to linear peptides of protein N of SARS-CoV Urbani,[1],0.7
same,Binding of serum 37 to looped/cyclic peptides of protein N of SARS-CoV Urbani,[1],0.6
same,Binding of serum 62 to linear peptides of protein N of SARS-CoV Urbani,[1],0.7
same,Binding of serum 62 to looped/cyclic peptides of protein N of SARS-CoV Urbani,[1],0.5
same,Binding of serum London to linear peptides of protein N of SARS-CoV Urbani,[1],0.5
same,Binding of serum London to looped/cyclic peptides of protein N of SARS-CoV Urbani,[1],0.3
same,Binding of serum SARS-green to linear peptides of protein N of SARS-CoV Urbani,[1],0.5
same,Binding of serum SARS-green to looped/cyclic peptides of protein N of SARS-CoV Urbani,[1],0.4
same,Binding of serum SARS-yellow to linear peptides of protein N of SARS-CoV Urbani,[1],0.5
same,Binding of serum SARS-yellow to looped/cyclic peptides of protein N of SARS-CoV Urbani,[1],0.5
same,Binding of antibody 03-018 to linear peptides of the N protein of SARS-CoV Urbani,[2],0.2
same,Binding of antibody 03-018 to looped/cyclic peptides of the N protein of SARS-CoV Urbani,[2],0.3
same,Binding of a rabbit serum to linear peptides of protein N of SARS-CoV Urbani (Rabbit serum linear peptides),[3],0.1
same,Binding of a rabbit serum to looped/cyclic peptides of protein N of SARS-CoV Urbani (Rabbit serum looped peptides),[3],1.1
same,Binding of Control Serum Blood-Bank to Looped peptides,[4],0.7
same,Binding of Control serum Blood-bank to linear peptides,[4],0.6
same,Binding of Control serum LUMC to linear peptides,[4],0.6
same,Binding of Control serum LUMC to looped peptides,[4],0.7

# Reference: patent publication US20070128217A1 (priority 2003, published 2007)
